NC(=O)c1ccccc1
solubility (mole fraction)
Conditions | 283.15 K | 288.15 K | 293.15 K | 298.15 K | 303.15 K | 308.15 K | 313.15 K | 318.15 K | 323.15 K
in ethanol | 0.041 | 0.0478 | 0.0567 | 0.0652 | 0.0761 | 0.0859 | 0.102 | 0.122 | 0.142
in ethyl acetate | 0.0217 | 0.024 | 0.0281 | 0.0325 | 0.0381 | 0.0453 | 0.0527 | 0.0618 | 0.0717
in methanol | 0.061 | 0.0692 | 0.08 | 0.088 | 0.104 | 0.123 | 0.138 | 0.162 | 0.186
in n-propanol | 0.0329 | 0.0399 | 0.0471 | 0.0552 | 0.0653 | 0.0754 | 0.0892 | 0.105 | 0.126

From BigSolDB 2.1
